Source: ChEMBL document CHEMBL1145177, “Further naphthylcombretastatins. An investigation on the role of the naphthalene moiety” (J Med Chem, 2005)

Legend:
Type in all cases: functional, cell-based
HL-60 = experiment: Inhibitory concentration value against human colon carcinoma H-116 or human cancer HL-60 tumor cell line
HT-29 = experiment: Inhibitory concentration value against human colon adenocarcinoma HT-29 tumor cell line
P388 = experiment: Inhibitory concentration value against murine P-388 tumor cell line; conditions: Mus musculus
A549 = experiment: Inhibitory concentration value against human A-549 tumor cell line
[1] = Inhibitory concentration value against human MEL-28 or human cancer HeLa tumor cell line
SK-MEL-28 = experiment: Inhibitory concentration value against human MEL-28 tumor cell line
HCT-116 = experiment: Inhibitory concentration value against human colon carcinoma H-116 tumor cell line

| Structure (SMILES) | IC50 (HL-60) [µM] | IC50 (HT-29) [µM] | IC50 (P388) [µM] | IC50 (A549) [µM] | IC50 [1] [µM] | IC50 (SK-MEL-28) [µM] | IC50 (HCT-116) [µM] |
| --- | --- | --- | --- | --- | --- | --- | --- |
| COc1cc(/C=C\c2ccc3ccccc3c2)cc(NC(C)=O)c1OC | > 5 | > 5 | > 5 | > 5 | > 5 | – | – |
| FC(F)(F)Oc1cccc(/C=C\c2ccc3ccccc3c2)c1 | – | 3.5 | 3.5 | 3.5 | – | 3.5 | 3.5 |
| COc1cc(/C=C/c2c[nH]c3ccccc23)cc(OC)c1OC | 3.23 | 3.23 | 3.23 | 3.23 | 3.23 | – | – |
| CC(=O)Oc1ccc(/C=C/c2ccc3ccccc3c2)cc1 | – | > 5 | > 5 | > 5 | – | > 5 | > 5 |
| Cc1ccc(/C=C\c2ccc3ccccc3c2)cc1 | – | > 5 | > 5 | > 5 | – | > 5 | > 5 |
| COc1c(N)cc(/C=C\c2ccc3ccccc3c2)cc1N | 5 | > 5 | 5 | > 5 | > 5 | – | – |
| COc1c([N+](=O)[O-])cc(/C=C\c2ccc3ccccc3c2)cc1[N+](=O)[O-] | > 5 | > 5 | > 5 | > 5 | > 5 | – | – |
| COc1cc(/C=C\c2ccc3c(ccn3S(=O)(=O)c3ccccc3)c2)cc(OC)c1OC | > 5 | > 5 | > 5 | > 5 | > 5 | – | – |
| COc1cc(/C=C/c2ccc(N(C)C)c([N+](=O)[O-])c2)cc(OC)c1OC | > 5 | > 5 | > 5 | > 5 | > 5 | – | – |
| FC(F)(F)c1ccc(/C=C\c2ccc3ccccc3c2)cc1 | – | > 5 | > 5 | > 5 | – | > 5 | > 5 |
| COc1cc(/C=C/c2ccc3ccccc3c2)cc(NC(C)=O)c1OC | 2.88 | > 5 | > 5 | > 5 | > 5 | – | – |
| CN(C)c1ccc(/C=C\c2ccc3ccccc3c2)cc1 | – | 3.66 | 3.66 | 3.66 | – | 3.66 | 3.66 |
| COCCOc1cc(/C=C\c2ccc3ccccc3c2)ccc1OC | – | 2.99 | 2.99 | 2.99 | – | 2.99 | 2.99 |
| COc1cc(/C=C\c2cn(C)c3ccccc23)cc(OC)c1OC | 3.09 | 3.09 | 3.09 | 3.09 | 3.09 | – | – |
| COc1c(N)cc(/C=C/c2ccc3ccccc3c2)cc1N | > 5 | > 5 | > 5 | > 5 | > 5 | – | – |
| C(=C/c1ccc2ccccc2c1)/c1ccoc1 | – | > 5 | > 5 | > 5 | – | > 5 | > 5 |
| C(=C\c1ccco1)/c1ccc2ccccc2c1 | – | > 5 | > 5 | > 5 | – | > 5 | > 5 |
| COc1cc(/C=C/c2cn(C(C)=O)c3ccccc23)cc(OC)c1OC | > 5 | > 5 | > 5 | > 5 | > 5 | – | – |
| C(=C\c1ccc2ccccc2c1)/c1ccc2c(c1)-c1ccccc1C2 | – | > 5 | > 5 | > 5 | – | > 5 | > 5 |
| Cc1ccc(/C=C/c2ccc3ccccc3c2)cc1 | – | > 5 | > 5 | > 5 | – | > 5 | > 5 |
| FC(F)(F)Oc1ccc(/C=C/c2ccc3ccccc3c2)cc1 | – | > 5 | > 5 | > 5 | – | > 5 | > 5 |
| COc1ccc(/C=C/c2ccc3ccccc3c2)cc1N | – | > 5 | > 5 | 1.82 | – | > 5 | 1.82 |
| COCCOc1cc(/C=C/c2ccc3ccccc3c2)ccc1OC | – | > 5 | 2.99 | 2.99 | – | 2.99 | > 5 |
| Cn1ccc2cc(/C=C\c3ccc4ccccc4c3)ccc21 | – | > 5 | > 5 | > 5 | – | > 5 | > 5 |
| COc1ccc(/C=C\c2ccc3ccccc3c2)cc1[N+](=O)[O-] | – | 3.28 | > 20 | > 20 | – | > 20 | > 20 |
| Cn1ccc2cc(/C=C/c3ccc4ccccc4c3)ccc21 | – | > 5 | > 5 | 3.53 | – | > 5 | > 5 |
| COc1cc(/C=C\c2ccc(N(C)C)c([N+](=O)[O-])c2)cc(OC)c1OC | > 5 | > 5 | > 5 | > 5 | > 5 | – | – |
| O=S(=O)(c1ccccc1)n1ccc2cc(/C=C/c3ccc4ccccc4c3)ccc21 | – | > 5 | > 5 | > 5 | – | > 5 | > 5 |

| Structure (SMILES) | IC50 (HL-60) [µM] | IC50 (HT-29) [µM] | IC50 (P388) [µM] | IC50 (A549) [µM] | IC50 [1] [µM] | IC50 (SK-MEL-28) [µM] | IC50 (HCT-116) [µM] |
| --- | --- | --- | --- | --- | --- | --- | --- |
| C(=C/c1ccc2[nH]ccc2c1)/c1ccc2ccccc2c1 | – | > 5 | > 5 | > 5 | – | > 5 | > 5 |
| COc1ccc(/C=C/c2ccc3ccccc3c2)cc1 | – | > 5 | > 5 | > 5 | – | > 5 | > 5 |
| COc1cc(/C=C/c2cn(C)c3ccccc23)cc(OC)c1OC | 3.09 | 3.09 | 3.09 | 3.09 | 3.09 | – | – |
| C(=C/c1cccc2ccccc12)/c1ccc2ccccc2c1 | – | 3.57 | 3.57 | 3.57 | – | 3.57 | 3.57 |
| COc1ccc(/C=C\c2ccc3ccccc3c2)cc1N | – | 1.82 | 1.82 | > 20 | – | > 20 | 0.36 |
| CN(C)c1ccc(/C=C/c2ccc3ccccc3c2)cc1 | – | 3.66 | 3.66 | 3.66 | – | 3.66 | 3.66 |
| Oc1ccc(/C=C/c2ccc3ccccc3c2)cc1 | – | 4.06 | 4.06 | 4.06 | – | 4.06 | 4.06 |
| COc1cc(/C=C\c2cn(C(C)=O)c3ccccc23)cc(OC)c1OC | 2.85 | 2.85 | 2.85 | 2.85 | 2.85 | – | – |
| COc1ccc(/C=C/c2ccc3ccccc3c2)cc1F | – | > 5 | 4.49 | > 5 | – | > 5 | > 5 |
| CCN(CC)c1cc(/C=C/c2ccc3ccccc3c2)ccc1OC | – | > 5 | > 5 | > 5 | – | > 5 | > 5 |
| FC(F)(F)c1ccc(/C=C/c2ccc3ccccc3c2)cc1 | – | > 5 | > 5 | > 5 | – | > 5 | > 5 |
| C(=C/c1ccc2ccccc2c1)/c1ccc2c(c1)-c1ccccc1C2 | – | > 5 | > 5 | > 5 | – | > 5 | > 5 |
| COc1cc(/C=C\c2ccc3ccccc3c2)cc(N)c1OC | 0.33 | 0.33 | 1.64 | 1.64 | 1.64 | – | – |
| COc1c([N+](=O)[O-])cc(/C=C/c2ccc3ccccc3c2)cc1[N+](=O)[O-] | > 5 | > 5 | > 5 | > 5 | > 5 | – | – |
| C(=C\c1ccc2ccccc2c1)/c1ccoc1 | – | > 5 | > 5 | > 5 | – | > 5 | > 5 |
| COc1cc(/C=C\c2c[nH]c3ccccc23)cc(OC)c1OC | 3.23 | 3.23 | 3.23 | 3.23 | 3.23 | – | – |
| COc1cc(/C=C/c2occc2C)cc(OC)c1OC | 3.65 | 3.65 | 3.65 | 3.65 | 3.65 | – | – |
| COc1ccc(/C=C/c2ccc3ccccc3c2)cc1C(=O)CN | – | > 5 | > 5 | > 5 | – | > 5 | > 5 |
| COc1cc(/C=C/c2ccc3c(ccn3S(=O)(=O)c3ccccc3)c2)cc(OC)c1OC | > 5 | > 5 | > 5 | > 5 | > 5 | – | – |
| COc1cc(/C=C/c2ccc(N(C)C)c(N)c2)cc(OC)c1OC | 1.52 | 0.3 | 1.52 | 1.52 | 1.52 | – | – |
| O=S(=O)(c1ccccc1)n1ccc2cc(/C=C\c3ccc4ccccc4c3)ccc21 | – | > 5 | > 5 | > 5 | – | > 5 | > 5 |
| CN(C)c1c([N+](=O)[O-])cc(/C=C\c2ccc3ccccc3c2)cc1[N+](=O)[O-] | 2.75 | 2.75 | > 5 | > 5 | > 5 | – | – |
| COc1ccc(/C=C/c2ccc3ccccc3c2)cc1[N+](=O)[O-] | – | > 5 | > 5 | > 5 | – | > 5 | > 5 |
| Cn1c2ccccc2c2cc(/C=C\c3ccc4ccccc4c3)ccc21 | – | > 5 | > 5 | > 5 | – | > 5 | > 5 |
| Cn1c2ccccc2c2cc(/C=C/c3ccc4ccccc4c3)ccc21 | – | > 5 | > 5 | > 5 | – | > 5 | > 5 |
| C(=C/c1ccco1)/c1ccc2ccccc2c1 | – | > 5 | > 5 | > 5 | – | > 5 | > 5 |
| COc1ccc(/C=C\c2ccc3ccccc3c2)cc1C(=O)CN | – | > 5 | > 5 | 1.58 | – | > 5 | > 5 |
